In PubChem BioAssay AID248 (DTP/NCI, 2004) one finds T/C data, which are given here for 17 compounds.

For this experiment, the system named is L1210 leukemia ip in BDF1 mice, survival T/C. The experiment in a line: NCI In Vivo Anticancer Drug Screen. Data for tumor model L1210 Leukemia (intraperitoneal) in B6D2F1 (BDF1) mice. Particulars: endpoint: mean survival time, higher = longer survival. An outline of the steps: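 Each compound was tested against a transplantable tumor grown in mice. The endpoint was survival, with treated animals benchmarked against vehicle controls as a simple ratio.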

Setting [1] is: dose: 100.0 mg/kg/injection, schedule: Q04DX003 (ip), vehicle: Klucel (hydroxypropylcellulose) (HPC).
Setting [2] is: dose: 200.0 mg/kg/injection, schedule: Q04DX003 (ip), vehicle: Klucel (hydroxypropylcellulose) (HPC).
[3] abbreviates: dose: 400.0 mg/kg/injection, schedule: Q04DX003 (ip), vehicle: Klucel (hydroxypropylcellulose) (HPC).
Where [4] appears, read: dose: 100.0 mg/kg/injection, schedule: Q01DX001 (ip), vehicle: saline with Tween-80.
Where [5] appears, read: dose: 100.0 mg/kg/injection, schedule: Q01DX009 (ip), vehicle: saline with Tween-80.
Setting [6] is: dose: 100.0 mg/kg/injection, schedule: Q04DX003 (ip), vehicle: saline with Tween-80.
[7] abbreviates: dose: 200.0 mg/kg/injection, schedule: Q01DX001 (ip), vehicle: saline with Tween-80.
The mark [8] stands for this setting: dose: 200.0 mg/kg/injection, schedule: Q01DX009 (ip), vehicle: saline with Tween-80.
Setting [9] is: dose: 200.0 mg/kg/injection, schedule: Q04DX003 (ip), vehicle: saline with Tween-80.
Setting [10] is: dose: 400.0 mg/kg/injection, schedule: Q01DX001 (ip), vehicle: saline with Tween-80.
Setting [11] is: dose: 400.0 mg/kg/injection, schedule: Q01DX009 (ip), vehicle: saline with Tween-80.
The mark [12] stands for this setting: dose: 400.0 mg/kg/injection, schedule: Q04DX003 (ip), vehicle: saline with Tween-80.

Values joined by “and” are separate entries in the source; they are usually repeats but may differ in a detail not shown here. Equal values may be shown once. Toxic doses and inconclusive results are not listed.

For the compound `N#CC(C#N)=Cc1ccsc1`, the T/C by setting is: (dose: 6.25 mg/kg/injection, schedule: Q01DX009 (ip), vehicle: Klucel (hydroxypropylcellulose) (HPC)) 102 % of control; (dose: 12.5 mg/kg/injection, schedule: Q01DX009 (ip), vehicle: Klucel (hydroxypropylcellulose) (HPC)) 94 % of control; (dose: 12.5 mg/kg/injection, schedule: Q04DX003 (ip), vehicle: Klucel (hydroxypropylcellulose) (HPC)) 102 % of control; (dose: 25.0 mg/kg/injection, schedule: Q01DX009 (ip), vehicle: Klucel (hydroxypropylcellulose) (HPC)) 100 % of control; (dose: 25.0 mg/kg/injection, schedule: Q04DX003 (ip), vehicle: Klucel (hydroxypropylcellulose) (HPC)) 96 % of control.
Regarding `CN(Cc1ccccc1)c1cc(=O)[nH]c(=O)[nH]1`, the T/C reads like this: under setting [1], 102 % of control; under setting [2], 96 % of control; under setting [3], 100 % of control.
For the compound `OCC1OC(n2cnc3cncnc32)C(O)C1O` (stereo not given), the T/C reads like this: (dose: 1.9 mg/kg/injection, schedule: Q01DX015 (ip), vehicle: saline) 108 % of control; (dose: 2.5 mg/kg/injection, schedule: Q01DX015 (ip), vehicle: saline) 104 % of control; (dose: 2.8 mg/kg/injection, schedule: Q01DX015 (ip), vehicle: saline) 151 % of control; (dose: 4.3 mg/kg/injection, schedule: Q01DX015 (ip), vehicle: saline) 110 % of control; (dose: 5.0 mg/kg/injection, schedule: Q01DX015 (ip), vehicle: saline) 106 % of control; (dose: 6.5 mg/kg/injection, schedule: Q01DX015 (ip), vehicle: saline) 108 % of control. The T/C is 112 % of control (dose: 9.7 mg/kg/injection, schedule: Q01DX015 (ip), vehicle: saline); 118 % of control (dose: 10.0 mg/kg/injection, schedule: Q01DX015 (ip), vehicle: saline); 93 % of control (dose: 20.0 mg/kg/injection, schedule: Q01DX015 (ip), vehicle: saline); 117 % of control and 122 % of control (dose: 50.0 mg/kg/injection, schedule: Q01DX001 (ip), vehicle: saline); 123 % of control (dose: 100.0 mg/kg/injection, schedule: Q01DX001 (ip), vehicle: saline).
For `C=CC1(CCC(C)C)C(=O)NC(=O)NC1=O`, the T/C by setting is: (dose: 75.0 mg/kg/injection, schedule: Q01DX001 (ip), vehicle: saline) 91 % of control; (dose: 150.0 mg/kg/injection, schedule: Q01DX001 (ip), vehicle: saline) 105 % of control; (dose: 300.0 mg/kg/injection, schedule: Q01DX001 (ip), vehicle: saline) 98 % of control.
Take `CC(=O)SCCCCl`: the T/C is 105 % of control (dose: 100.0 mg/kg/injection, schedule: Q04DX003 (ip), vehicle: saline); 101 % of control (dose: 200.0 mg/kg/injection, schedule: Q04DX003 (ip), vehicle: saline); 102 % of control (dose: 400.0 mg/kg/injection, schedule: Q04DX003 (ip), vehicle: saline).
Turning to `CN(CCNC(=O)NCCCCCCNC(=O)NCCN(C)c1ccccc1)c1ccccc1`, the T/C (dose: 100.0 mg/kg/injection, schedule: Q04DX002 (ip), vehicle: Klucel (hydroxypropylcellulose) (HPC)) was 105 % of control; the T/C (dose: 200.0 mg/kg/injection, schedule: Q04DX002 (ip), vehicle: Klucel (hydroxypropylcellulose) (HPC)) was 97 % of control; the T/C (dose: 400.0 mg/kg/injection, schedule: Q04DX002 (ip), vehicle: Klucel (hydroxypropylcellulose) (HPC)) is 108 % of control.
Take `O=C(c1ccccc1)C1CCCCCC1`: the T/C reads like this: (dose: 100.0 mg/kg/injection, schedule: Q01DX009 (ip), vehicle: Klucel (hydroxypropylcellulose) (HPC)) 108 % of control; under setting [1], 94 % of control; (dose: 200.0 mg/kg/injection, schedule: Q01DX009 (ip), vehicle: Klucel (hydroxypropylcellulose) (HPC)) 102 % of control; under setting [2], 98 % of control; (dose: 400.0 mg/kg/injection, schedule: Q01DX009 (ip), vehicle: Klucel (hydroxypropylcellulose) (HPC)) 104 % of control; under setting [3], 98 % of control.
Turning to `COC(=O)n1nc2ccccc2c1N`, the T/C (dose: 50.0 mg/kg/injection, schedule: Q01DX009 (ip), vehicle: saline) was 96 % of control; the T/C (dose: 100.0 mg/kg/injection, schedule: Q01DX009 (ip), vehicle: saline) was 96 % of control; the T/C (dose: 200.0 mg/kg/injection, schedule: Q01DX009 (ip), vehicle: saline) is 93 % of control.
Consider `COc1ccc(Cl)cc1NC(=O)OCC(Cl)(Cl)Cl`, for which the T/C under setting [4] is 95 % of control; the T/C under setting [5] is 100 % of control and 102 % of control; the T/C (dose: 100.0 mg/kg/injection, schedule: Q04DX002 (ip), vehicle: saline with Tween-80) was 93 % of control and 91 % of control; the T/C under setting [6] is 103 % of control; the T/C under setting [7] was 94 % of control; the T/C under setting [8] was 96 % of control and 115 % of control. In addition, the T/C reads like this: (dose: 200.0 mg/kg/injection, schedule: Q04DX002 (ip), vehicle: saline with Tween-80) 94 % of control and 101 % of control; under setting [9], 94 % of control; under setting [10], 94 % of control; under setting [11], 100 % of control and 91 % of control; (dose: 400.0 mg/kg/injection, schedule: Q04DX002 (ip), vehicle: saline with Tween-80) 97 % of control and 108 % of control; under setting [12], 97 % of control.
Turning to `NC(Cc1c[nH]c2c(N(CCCl)CCCl)cccc12)C(=O)O` (stereo not given), the T/C was 101 % of control (dose: 0.88 mg/kg/injection, schedule: Q01DX Z (ip), vehicle: methylcellulose (MC)); 95 % of control (dose: 1.3 mg/kg/injection, schedule: Q01DX Z (ip), vehicle: methylcellulose (MC)); 95 % of control (dose: 2.0 mg/kg/injection, schedule: Q01DX Z (ip), vehicle: methylcellulose (MC)); 101 % of control (dose: 3.0 mg/kg/injection, schedule: Q01DX Z (ip), vehicle: methylcellulose (MC)); 118 % of control (dose: 5.0 mg/kg/injection, schedule: Q01DX Z (ip), vehicle: methylcellulose (MC)); 118 % of control (dose: 40.0 mg/kg/injection, schedule: Q01DX Z (ip), vehicle: methylcellulose (MC)).
As for `O=C1CCCNc2ccccc21`, the T/C under setting [5] was 98 % of control; the T/C under setting [1] is 93 % of control; the T/C under setting [8] was 110 % of control; the T/C under setting [2] was 106 % of control; the T/C under setting [11] is 93 % of control; the T/C under setting [3] was 98 % of control.
Take `CCCCCCCCCCCCCCCCCCOB(OCCCCCCCCCCCCCCCCCC)OCCCCCCCCCCCCCCCCCC`: the T/C is 108 % of control under setting [6], 108 % of control under setting [9] and 97 % of control under setting [12].
Take `Clc1ccc(COCc2ccccc2COCc2ccc(Cl)cc2Cl)c(Cl)c1`: the T/C by setting is: under setting [1], 93 % of control; under setting [2], 96 % of control; under setting [3], 88 % of control.
For `CCN(CC)c1ccc(N=Nc2c(C)nc(N)nc2-c2ccccc2)cc1`, the T/C (dose: 5.0 mg/kg/injection, schedule: Q01DX001 (ip), vehicle: saline) was 103 % of control; the T/C (dose: 10.0 mg/kg/injection, schedule: Q01DX001 (ip), vehicle: saline) was 96 % of control; the T/C (dose: 20.0 mg/kg/injection, schedule: Q01DX001 (ip), vehicle: saline) was 91 % of control; the T/C (dose: 40.0 mg/kg/injection, schedule: Q01DX001 (ip), vehicle: saline) is 92 % of control; the T/C (dose: 80.0 mg/kg/injection, schedule: Q01DX001 (ip), vehicle: saline) is 87 % of control.
Turning to `CC(=O)OC1CSC1OC(C)=O` (stereo not given), the T/C reads like this: under setting [4], 95 % of control; under setting [7], 93 % of control; under setting [10], 98 % of control.
Turning to `Cc1cc(O)c2c(c1O)C(=O)C13C(=C2O)C(=O)C2C(O)C1C1C(O)C3C(=O)C3=C(O)c4c(O)cc(C)c(O)c4C(=O)C321` (stereo not given), the T/C (dose: 12.5 mg/kg/injection, schedule: Q04DX003 (ip), vehicle: saline with Tween-80) was 93 % of control and the T/C (dose: 25.0 mg/kg/injection, schedule: Q04DX003 (ip), vehicle: saline with Tween-80) was 106 % of control.
Consider `CC(C)(O)CCNc1ncnc2c1ncn2C1OC(CO)C(O)C1O` (stereo not given), for which the T/C (dose: 25.0 mg/kg/injection, schedule: Q01DX005 (ip), vehicle: water) is 97 % of control and 104 % of control; the T/C (dose: 50.0 mg/kg/injection, schedule: Q01DX005 (ip), vehicle: water) is 103 % of control and 110 % of control; the T/C (dose: 100.0 mg/kg/injection, schedule: Q01DX005 (ip), vehicle: water) is 106 % of control and 109 % of control.
